Converted amounts (≈) assume the structure as drawn. Residues, ends and D or L forms follow the SMILES beside them.
Legend:
[1] = Water solubility of the peptides; format: physicochemical
Excerpt: The physicochemical properties of the peptides of the present invention obtained by the above-described process are shown below.

C3H/HeSlc mice = assay: Effect on hair growth of mouse (feed administration); format: in vivo; conditions: 20th day, control group subtracted
Description: A test of the effect on hair growth of mice was carried out referring to the method of Ogawa, et al. [The Journal of Dermatology, 10, 45-54 (1983)].
Nine-weeks-old male C3H/HeSlc mice whose hair cycle was in the telogen (Japan SLC) were divided into groups each consisting of 4 or 5 mice. Hair on the back of each mouse was carefully shaven using electric hair clippers and an electric shaver. Then, the mice were fed with the feeds prepared in Reference Examples 1-4.
The control group was fed only with a powder feed containing no peptide of the present invention (CE-2, Clea Japan, Inc.)
On the 20th day after the start of the test, the skin on the back of each mouse was cut off and photographed. Using an image processor (Avionics Co., Spicca II), the percentage of the hair-grown area to the total area of the skin on the back was calculated. The rate of the increased hair-grown area (%) was obtained by subtracting the hair-growing rate of the control group from the hair-growing rate of the group fed with a powder feed containing a peptide of the present invention.

[2] = test system: human peripheral blood leukocytes; assay: Measurement of phagocytosis activity (fluorescence-labeled latex beads, flow cytometry); format: cell-based; conditions: rate based on the control (only PBS)
Description: To human peripheral blood was added physiological saline containing phosphate buffer (PBS), and the resulting mixture was centrifuged at 1000 rpm for 5 minutes to wash blood cells. Then, the blood cells were suspended in PBS to prepare a suspension having a density of 4 x 10^6 cells/ml. To 100 µl of the suspension was added 10 µl of a solution of a peptide in PBS, followed by incubation at 37°C for 10 minutes. Then, 10 µl of a suspension of 4 x 10^8/ml fluorescence-labeled latex beads opsonized with human peripheral blood was added thereto, and the resulting mixture was incubated for 5 minutes. To the mixture was added PBS containing ethylenediaminetetraacetic acid (EDTA) to stop the reaction. The resulting mixture was centrifuged to separate blood cells, and an ammonium chloride hemolyzing agent was added thereto for hemolysis to obtain leukocytes. After the obtained leukocytes were suspended in PBS containing EDTA, the resulting suspension was subjected to flow cytometry, and the number of cells which phagocytosed latex beads was calculated.
The results are expressed in terms of the rate based on the control (containing only PBS).

[3] = test system: mouse hair follicle cells; assay: Cell growth-promoting effect on cultured mouse hair follicle cells (Neutral Red); format: cell-based, C3H mouse; conditions: 5 days culture
Description: Mouse hair follicle cells were separated and cultured according to a modification of the method of Tanigaki, et al. [Archives of Dermatological Research, 284, 290-296 (1992)].
The skin on the back of a 4-days-old C3H mouse (Nippon Charles River Co., Ltd.) was cut off and treated with Eagle's MEM (Eagle's Minimum Essential Medium, Nissui Pharmaceutical Co., Ltd.) containing 500 units/ml Dispase (Godo Shusei Co., Ltd.) and 5% fetal calf serum (FCS) at 4°C for 16 hours. Then, the epidermis was stripped from the skin section, and the obtained dermis layer was treated with DMEM (Dulbecco's Modified Eagle Medium) containing 0.25% Collagenase N-2 (Nitta Gelatin Co., Ltd.) and 10% FCS at 37°C for one hour to obtain a dermis suspension. The dermis suspension was filtered through a 212-µm nylon mesh (Nippon Rikagaku Kikai Co., Ltd.) and the filtrate was centrifuged at 1000 rpm for 5 minutes to obtain pellets containing hair follicle tissue. To the pellets was added calcium/magnesium-free PBS (Dulbecco's Phosphate-Buffered Saline) and the pellets were suspended therein using a pipette. The resulting suspension was allowed to stand for 15 minutes to precipitate the hair tissue. The same procedure as above (addition of calcium/magnesium-free PBS, preparation of a suspension using a pipette, and precipitation by standing for 15 minutes) was repeated three times using the obtained hair tissue. Then, the hair tissue was treated with an aqueous solution containing 0.1% ethylenediaminetetraacetic acid (EDTA) and 0.25% trypsin (Gibco) at 37°C for 5 minutes. To the resulting mixture was added DMEM containing 10% FCS to prepare a hair tissue cell suspension having a density of 3 x 10^5 cells/ml.
This hair tissue cell suspension was put into wells of a 24-well collagen-coated plate (Iwaki Glass Co., Ltd.) in an amount of 1 ml/well, followed by culturing in 5% CO2 at 37°C for 24 hours. After the completion of culturing, the medium was replaced by a medium prepared by adding to MCDB153 medium (Kyokuto Pharmaceutical Ind. Co., Ltd.) 5 mg/l bovine insulin (Sigma Chemical Co.), 5 µg/l mouse epidermal growth factor (EGF) (Takara Shuzo Co., Ltd.), 40 mg/l bovine pituitary extract (Kyokuto Pharmaceutical Ind. Co., Ltd.), 10 mg/l human transferrin (Sigma Chemical Co.), 0.4 mg/l hydrocortisone (Sigma Chemical Co.), 0.63 µg/l progesterone (Collaborative Research Co.), 14 mg/l O-phosphoethanolamine (Sigma Chemical Co.), 6.1 mg/l ethanolamine (Sigma Chemical Co.), 50 U/ml penicillin (Wako Pure Chemical Industries, Ltd.), 50 µg/ml streptomycin (Wako Pure Chemical Industries, Ltd.) and a dimethyl sulfoxide (DMSO) solution containing a peptide of the present invention (added in an amount of 1/100 by volume based on the medium), followed by further culturing in 5% CO2 at 37°C for 5 days. During the culturing, the medium was replaced with a fresh one every other day.
As a control, the cells were cultured in the same medium as above except that DMSO containing no peptide was added in an amount of 1/100 by volume based on the culture in place of DMSO containing the peptide.
The degree of cell growth was measured referring to the method using Neutral Red [Journal of Tissue Culture Method, 9, 1, 7-9 (1984)].
After the completion of culturing, the medium was sucked and the resulting cells were cultured in MCDB153 medium containing 50 mg/l Neutral Red (Sigma Chemical Co.) in 5% CO2 at 37°C for 3 hours. […] The degree of cell growth was determined by measuring the absorbance of the extract at 540 nm. […]

Row | solubility [1] [µg/mL] | Structure (SMILES) | Phagocytosis activity ([2]; Concentration 1 µM) | Phagocytosis activity ([2]; Concentration 3 µM) | Phagocytosis activity ([2]; Concentration 10 µM) | also measured
1 | 30000 (≈ 73300 µM) | CC[C@H](C)[C@H](NC(=O)[C@@H](N)CCSC)C(=O)N[C@@H](Cc1ccccc1)C(=O)O [MIF] (H-Met-Ile-Phe-OH) |  |  |  | Rate of increased hair-grown area (%) (C3H/HeSlc mice; 0.005% addition to feed): 26.8%
2 | 200 (≈ 383 µM) | CC[C@H](C)[C@H](NC(=O)[C@@H](N)CCSC)C(=O)N[C@@H](Cc1ccccc1)C(=O)N[C@@H](CC(C)C)C(=O)O [MIFL] (H-MIFL-OH) | 2.45 ± 0.17 | 3.06 ± 0.25 |  | Phagocytosis activity ([2]; Concentration 0.1 µM): 1.10 ± 0.09; Phagocytosis activity ([2]; Concentration 0.3 µM): 1.68 ± 0.08
3 | 1000 (≈ 2230 µM) | CC[C@H](C)[C@H](NC(=O)[C@@H](N)CCSC)C(=O)N[C@@H](Cc1c[nH]c2ccccc12)C(=O)O [MIW] (H-Met-Ile-Trp-OH) |  |  |  | Rate of increased hair-grown area (%) (C3H/HeSlc mice; 0.005% addition to feed): 20.7%; Rate of increased hair-grown area (%) (C3H/HeSlc mice; 0.05% addition to feed): 23.7%; Relative cell growth rate (%) (based on the control) ([3]; Concentration 1 µM): 97%; Relative cell growth rate (%) (based on the control) ([3]; Concentration 3 µM): 143%; Relative cell growth rate (%) (based on the control) ([3]; Concentration 10 µM): 130%; Relative cell growth rate (%) (based on the control) ([3]; Concentration 30 µM): 123%; Relative cell growth rate (%) (based on the control) ([3]; Concentration 100 µM): 119%
4 | 200 (≈ 409 µM) | CC[C@H](C)[C@H](NC(=O)[C@@H](NC(=O)[C@@H](N)CCSC)[C@@H](C)CC)C(=O)N[C@@H](CC(C)C)C(=O)O [MIIL] (H-MIIL-OH) | 1.18 ± 0.07 | 1.62 ± 0.08 | 2.52 ± 0.18 | Phagocytosis activity ([2]; Concentration 30 µM): 2.95 ± 0.20
5 | 300 (≈ 557 µM) | CC[C@H](C)[C@H](NC(=O)[C@@H](N)CCSC)C(=O)N[C@@H](Cc1ccc(O)cc1)C(=O)N[C@@H](CC(C)C)C(=O)O [MIYL] (H-MIYL-OH) | 1.32 ± 0.15 | 2.21 ± 0.25 | 3.12 ± 0.32 | 
6 | 200 (≈ 356 µM) | CC[C@H](C)[C@H](NC(=O)[C@@H](N)CCSC)C(=O)N[C@@H](Cc1c[nH]c2ccccc12)C(=O)N[C@@H](CC(C)C)C(=O)O [MIWL] (H-MIWL-OH) | 3.11 ± 0.07 | 3.04 ± 0.50 |  | Phagocytosis activity ([2]; Concentration 0.1 µM): 1.93 ± 0.18; Phagocytosis activity ([2]; Concentration 0.3 µM): 2.74 ± 0.25; Rate of increased hair-grown area (%) (C3H/HeSlc mice; 0.05% addition to feed): 34.4%
7 | 200 (≈ 409 µM) | CC[C@H](C)[C@H](NC(=O)[C@@H](N)CCSC)C(=O)N[C@@H](CC(C)C)C(=O)N[C@@H](CC(C)C)C(=O)O [MILL] (H-MILL-OH) |  | 1.28 ± 0.09 | 2.05 ± 0.08 | Phagocytosis activity ([2]; Concentration 30 µM): 2.97 ± 0.17
